{
  "source": "PubChem BioAssay (NCI)",
  "assay_in_all_cases": "NCI anticancer screen, dose series, 48 h",
  "key": {"UACC-62 melanoma": {"test_system": "UACC-62 melanoma"}, "OVCAR-5 ovarian": {"test_system": "OVCAR-5 ovarian"}, "TK-10 renal": {"test_system": "TK-10 renal"}, "HT29 colon": {"test_system": "HT29 colon"}, "MCF7 breast": {"test_system": "MCF7 breast"}, "UACC-257 melanoma": {"test_system": "UACC-257 melanoma"}, "NCI-H522 lung": {"test_system": "NCI-H522 lung"}, "SF-268 CNS": {"test_system": "SF-268 CNS"}, "HCT-15 colon": {"test_system": "HCT-15 colon"}, "K-562 leukemia": {"test_system": "K-562 leukemia"}, "A549 NSCLC": {"test_system": "A549 NSCLC"}, "OVCAR-4 ovarian": {"test_system": "OVCAR-4 ovarian"}, "NCI/ADR-RES ovarian": {"test_system": "NCI/ADR-RES ovarian"}, "NCI-H226 lung": {"test_system": "NCI-H226 lung"}, "SK-OV-3 ovarian": {"test_system": "SK-OV-3 ovarian"}, "SF-539 CNS": {"test_system": "SF-539 CNS"}, "NCI-H460 lung": {"test_system": "NCI-H460 lung"}, "786-0 renal": {"test_system": "786-0 renal"}, "MDA-MB-435": {"test_system": "MDA-MB-435"}, "RXF 393 renal": {"test_system": "RXF 393 renal"}, "SK-MEL-5 melanoma": {"test_system": "SK-MEL-5 melanoma"}, "UO-31 renal": {"test_system": "UO-31 renal"}, "HCC-2998 colon": {"test_system": "HCC-2998 colon"}, "SK-MEL-28 melanoma": {"test_system": "SK-MEL-28 melanoma"}, "SN12C renal": {"test_system": "SN12C renal"}, "BT-549 breast": {"test_system": "BT-549 breast"}, "T-47D breast": {"test_system": "T-47D breast"}, "RPMI-8226 leukemia": {"test_system": "RPMI-8226 leukemia"}, "MALME-3M melanoma": {"test_system": "MALME-3M melanoma"}},
  "note": "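Each compound was tested at five concentrations against cells in 96-well plates for 48 hours. GI50 marks 50% less growth. At the TGI there is no net growth.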",
  "data": [
    {"compound": "S=C(Nc1ccccc1)c1ccccn1", "values": [
      {"measurement": "GI50", "setting": "UACC-62 melanoma", "result": 70.7, "unit": "µM"},
      {"measurement": "TGI", "setting": "UACC-62 melanoma", "result": "> 100", "unit": "µM"},
      {"measurement": "GI50", "setting": "OVCAR-5 ovarian", "result": "> 100", "unit": "µM"},
      {"measurement": "TGI", "setting": "OVCAR-5 ovarian", "result": "> 100", "unit": "µM"},
      {"measurement": "GI50", "setting": "TK-10 renal", "result": "> 100", "unit": "µM"},
      {"measurement": "TGI", "setting": "TK-10 renal", "result": "> 100", "unit": "µM"},
      {"measurement": "GI50", "setting": "HT29 colon", "result": 50.1, "unit": "µM"},
      {"measurement": "TGI", "setting": "HT29 colon", "result": "> 100", "unit": "µM"},
      {"measurement": "GI50", "setting": "MCF7 breast", "result": "> 100", "unit": "µM"},
      {"measurement": "TGI", "setting": "MCF7 breast", "result": "> 100", "unit": "µM"},
      {"measurement": "GI50", "setting": "UACC-257 melanoma", "result": "> 100", "unit": "µM"},
      {"measurement": "TGI", "setting": "UACC-257 melanoma", "result": "> 100", "unit": "µM"},
      {"measurement": "GI50", "setting": "NCI-H522 lung", "result": 14, "unit": "µM"},
      {"measurement": "TGI", "setting": "NCI-H522 lung", "result": "> 100", "unit": "µM"},
      {"measurement": "GI50", "setting": "SF-268 CNS", "result": 77.3, "unit": "µM"},
      {"measurement": "TGI", "setting": "SF-268 CNS", "result": "> 100", "unit": "µM"},
      {"measurement": "GI50", "setting": "HCT-15 colon", "result": 40.3, "unit": "µM"},
      {"measurement": "TGI", "setting": "HCT-15 colon", "result": "> 100", "unit": "µM"},
      {"measurement": "GI50", "setting": "K-562 leukemia", "result": 48.4, "unit": "µM"},
      {"measurement": "TGI", "setting": "K-562 leukemia", "result": "> 100", "unit": "µM"},
      {"measurement": "GI50", "setting": "A549 NSCLC", "result": "> 100", "unit": "µM"},
      {"measurement": "TGI", "setting": "A549 NSCLC", "result": "> 100", "unit": "µM"},
      {"measurement": "GI50", "setting": "OVCAR-4 ovarian", "result": 52.4, "unit": "µM"},
      {"measurement": "TGI", "setting": "OVCAR-4 ovarian", "result": "> 100", "unit": "µM"},
      {"measurement": "GI50", "setting": "NCI/ADR-RES ovarian", "result": 52.1, "unit": "µM"},
      {"measurement": "TGI", "setting": "NCI/ADR-RES ovarian", "result": "> 100", "unit": "µM"},
      {"measurement": "GI50", "setting": "NCI-H226 lung", "result": "> 100", "unit": "µM"},
      {"measurement": "TGI", "setting": "NCI-H226 lung", "result": "> 100", "unit": "µM"},
      {"measurement": "GI50", "setting": "SK-OV-3 ovarian", "result": "> 100", "unit": "µM"},
      {"measurement": "TGI", "setting": "SK-OV-3 ovarian", "result": "> 100", "unit": "µM"},
      {"measurement": "GI50", "setting": "SF-539 CNS", "result": "> 100", "unit": "µM"},
      {"measurement": "TGI", "setting": "SF-539 CNS", "result": "> 100", "unit": "µM"},
      {"measurement": "GI50", "setting": "NCI-H460 lung", "result": 63.2, "unit": "µM"},
      {"measurement": "TGI", "setting": "NCI-H460 lung", "result": "> 100", "unit": "µM"},
      {"measurement": "GI50", "setting": "786-0 renal", "result": "> 100", "unit": "µM"},
      {"measurement": "TGI", "setting": "786-0 renal", "result": "> 100", "unit": "µM"},
      {"measurement": "GI50", "setting": "MDA-MB-435", "result": 80.6, "unit": "µM"},
      {"measurement": "TGI", "setting": "MDA-MB-435", "result": "> 100", "unit": "µM"},
      {"measurement": "GI50", "setting": "RXF 393 renal", "result": 40.3, "unit": "µM"},
      {"measurement": "TGI", "setting": "RXF 393 renal", "result": "> 100", "unit": "µM"},
      {"measurement": "GI50", "setting": "SK-MEL-5 melanoma", "result": 69.2, "unit": "µM"},
      {"measurement": "TGI", "setting": "SK-MEL-5 melanoma", "result": "> 100", "unit": "µM"},
      {"measurement": "GI50", "setting": "UO-31 renal", "result": 25.5, "unit": "µM"},
      {"measurement": "TGI", "setting": "UO-31 renal", "result": "> 100", "unit": "µM"},
      {"measurement": "GI50", "setting": "HCC-2998 colon", "result": "> 100", "unit": "µM"},
      {"measurement": "TGI", "setting": "HCC-2998 colon", "result": "> 100", "unit": "µM"},
      {"measurement": "GI50", "setting": "SK-MEL-28 melanoma", "result": "> 100", "unit": "µM"},
      {"measurement": "TGI", "setting": "SK-MEL-28 melanoma", "result": "> 100", "unit": "µM"},
      {"measurement": "GI50", "setting": "SN12C renal", "result": 95.9, "unit": "µM"},
      {"measurement": "TGI", "setting": "SN12C renal", "result": "> 100", "unit": "µM"},
      {"measurement": "GI50", "setting": "BT-549 breast", "result": 73.9, "unit": "µM"},
      {"measurement": "TGI", "setting": "BT-549 breast", "result": "> 100", "unit": "µM"},
      {"measurement": "GI50", "setting": "T-47D breast", "result": "> 100", "unit": "µM"},
      {"measurement": "TGI", "setting": "T-47D breast", "result": "> 100", "unit": "µM"},
      {"measurement": "GI50", "setting": "RPMI-8226 leukemia", "result": 41.7, "unit": "µM"},
      {"measurement": "TGI", "setting": "RPMI-8226 leukemia", "result": "> 100", "unit": "µM"},
      {"measurement": "GI50", "setting": "MALME-3M melanoma", "result": "> 100", "unit": "µM"},
      {"measurement": "TGI", "setting": "MALME-3M melanoma", "result": "> 100", "unit": "µM"}
    ]}
  ]
}
